Reference: US8802597B2, “Herbicidal pyrimidines” (E I du Pont de Nemours and Company, priority 2003, dated 2014)

Experiments:
Format in all cases: in vivo
[1] = test system: duck salad (Heteranthera limosa); experiment: Test B flooded paddy test; details: Flood, scale 0 to 100
How it was run: (§1)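 Visual injury scoring (0 = no effect, 100 = complete control) versus controls made 13 to 15 days after treatment in the greenhouse. Test species were grown in flooded paddy to the 2-leaf stage: rice, barnyardgrass, umbrella sedge, duck salad.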

[2] = test system: umbrella sedge (Cyperus difformis); experiment: Test B flooded paddy test; details: Flood, scale 0 to 100
How it was run: as §1

[3] = test system: barnyardgrass (Echinochloa crus-galli); experiment: Test B flooded paddy test; details: Flood
How it was run: as §1

rice (Oryza sativa) = experiment: Test B flooded paddy test; details: Flood, scale 0 to 100
How it was run: as §1

corn (Zea mays) = experiment: Test B pre/postemergence
How it was run: (§2)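 Test chemicals in a non-phytotoxic solvent mixture with surfactant were applied preemergence to planted seeds and postemergence to plants 2 to 18 cm tall (1- to 4-leaf stage). After 13 to 15 days in a greenhouse, injury was visually rated against untreated controls on a 0 to 100 scale.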

[4] = test system: lambsquarters (Chenopodium album); experiment: Test B pre/postemergence
How it was run: as §2

[5] = test system: wheat (Triticum aestivum); experiment: Test B pre/postemergence
How it was run: as §2

[6] = test system: crabgrass (Digitaria sanguinalis); experiment: Test B pre/postemergence
How it was run: as §2

[7] = test system: giant foxtail (Setaria faberii); experiment: Test B pre/postemergence
How it was run: as §2

[8] = test system: Surinam grass (Brachiaria decumbens); experiment: Test B pre/postemergence
How it was run: as §2

[9] = test system: barnyardgrass (Echinochloa crus-galli); experiment: Test B pre/postemergence
How it was run: as §2

[10] = test system: morningglory (Ipomoea coccinea); experiment: Test B pre/postemergence
How it was run: as §2

[11] = test system: cocklebur (Xanthium strumarium); experiment: Test B pre/postemergence
How it was run: as §2

[12] = test system: velvetleaf (Abutilon theophrasti); experiment: Test B pre/postemergence
How it was run: as §2

[13] = test system: pigweed (Amaranthus retroflexus); experiment: Test B pre/postemergence
How it was run: as §2

[14] = test system: blackgrass (Alopecurus myosuroides); experiment: Test B postemergence; details: for Blackgrass plant response rating: scale 0 to 100 (0 no effect, 100 complete control)
How it was run: as §2

wild oat (Avena fatua) = experiment: Test B postemergence; details: for Oat, Wild plant response rating: scale 0 to 100 (0 no effect, 100 complete control)
How it was run: as §2

[15] = Postemergence, 125 g ai/ha, scale 0 to 100 (0 no effect, 100 complete control)
[16] = Postemergence, 500 g ai/ha, scale 0 to 100
[17] = Preemergence, 125 g ai/ha, scale 0 to 100 (0 no effect, 100 complete control)
[18] = Preemergence, 500 g ai/ha, scale 0 to 100 (0 no effect, 100 complete control)
[19] = Postemergence, 62 g ai/ha, scale 0 to 100 (0 no effect, 100 complete control)
[20] = Preemergence, 62 g ai/ha, scale 0 to 100, 0 no effect, 100 complete control

SMILES: CCCCOC(=O)c1nc(C2CC2)nc(N)c1Br [Compound 16]
- Plant response rating, Ducksalad ([1]; 1000 g ai/ha): 90
- Plant response rating, Sedge, Umbrella ([2]; 1000 g ai/ha): 60
- Plant response rating, Barnyardgrass ([3]; 1000 g ai/ha, scale 0 (no effect) to 100 (complete control)): 90
- Plant response rating, Rice (rice (Oryza sativa); 1000 g ai/ha): 70
- Corn plant response rating (corn (Zea mays); [15]): 30
- Plant response rating, Corn (corn (Zea mays); [16]): 80
- Plant response rating, Corn (corn (Zea mays); [17]): 30
- Corn plant response rating (corn (Zea mays); [18]): 70
- Lambsquarters plant response rating [4, 15]: 100
- Plant response rating, Lambsquarters [4, 16]: 100
- Plant response rating, Lambsquarters [4, 17]: 100
- Lambsquarters plant response rating [4, 18]: 100
- Wheat plant response rating [5, 15]: 30
- Plant response rating, Wheat [5, 16]: 60
- Plant response rating, Wheat [5, 17]: 50
- Wheat plant response rating [5, 18]: 60
- Crabgrass plant response rating [6, 15]: 30
- Plant response rating, Crabgrass [6, 16]: 80
- Plant response rating, Crabgrass [6, 17]: 70
- Crabgrass plant response rating [6, 18]: 100
- Foxtail, Giant plant response rating [7, 15]: 30
- Plant response rating, Foxtail, Giant [7, 16]: 80
- Plant response rating, Foxtail, Giant [7, 17]: 30
- Foxtail, Giant plant response rating [7, 18]: 80
- Surinam Grass plant response rating [8, 15]: 60
- Plant response rating, Surinam Grass [8, 16]: 90
- Plant response rating, Surinam Grass [8, 17]: 40
- Surinam Grass plant response rating [8, 18]: 80
- Barnyardgrass plant response rating [9, 15]: 70
- Plant response rating, Barnyardgrass [9, 16]: 90
- Plant response rating, Barnyardgrass [9, 17]: 30
- Barnyardgrass plant response rating [9, 18]: 90
- Morningglory plant response rating [10, 15]: 100
- Plant response rating, Morningglory [10, 16]: 100
- Plant response rating, Morningglory [10, 17]: 90
- Morningglory plant response rating [10, 18]: 100
- Cocklebur plant response rating [11, 15]: 90
- Plant response rating, Cocklebur [11, 16]: 100
- Plant response rating, Cocklebur [11, 17]: 70
- Cocklebur plant response rating [11, 18]: 100
- Velvetleaf plant response rating [12, 15]: 80
- Plant response rating, Velvetleaf [12, 16]: 90
- Plant response rating, Velvetleaf [12, 17]: 80
- Velvetleaf plant response rating [12, 18]: 100
- Pigweed plant response rating [13, 15]: 90
- Plant response rating, Pigweed [13, 16]: 100
- Plant response rating, Pigweed [13, 17]: 90
- Pigweed plant response rating [13, 18]: 90
- Blackgrass plant response rating ([14]; 125 g ai/ha): 10
- Plant response rating, Blackgrass ([14]; 500 g ai/ha, scale 0 to 100): 70
- Oat, Wild plant response rating (wild oat (Avena fatua); 125 g ai/ha): 10
- Plant response rating, Oat, Wild (wild oat (Avena fatua); 500 g ai/ha, scale 0 to 100): 60

SMILES: CCCOC(=O)c1nc(C2CC2)nc(N)c1Cl [Compound 75]
- Plant response rating, Ducksalad ([1]; 125 g ai/ha): 0
- Plant response rating, Ducksalad ([1]; 500 g ai/ha): 70
- Plant response rating, Sedge, Umbrella ([2]; 125 g ai/ha): 0
- Plant response rating, Sedge, Umbrella ([2]; 500 g ai/ha): 10
- Plant response rating, Barnyardgrass ([3]; 125 g ai/ha, scale 0 to 100): 0
- Plant response rating, Barnyardgrass ([3]; 500 g ai/ha, scale 0 to 100): 70
- Plant response rating, Rice (rice (Oryza sativa); 125 g ai/ha): 0
- Plant response rating, Rice (rice (Oryza sativa); 500 g ai/ha): 70
- Corn plant response rating (corn (Zea mays); [19]): 60
- Corn plant response rating (corn (Zea mays); [15]): 70
- Plant response rating, Corn (corn (Zea mays); [20]): 50
- Plant response rating, Corn (corn (Zea mays); [17]): 80
- Lambsquarters plant response rating [4, 19]: 90
- Lambsquarters plant response rating [4, 15]: 100
- Plant response rating, Lambsquarters [4, 20]: 100
- Plant response rating, Lambsquarters [4, 17]: 100
- Wheat plant response rating [5, 19]: 50
- Wheat plant response rating [5, 15]: 70
- Plant response rating, Wheat [5, 20]: 30
- Plant response rating, Wheat [5, 17]: 70
- Crabgrass plant response rating [6, 19]: 70
- Crabgrass plant response rating [6, 15]: 80
- Plant response rating, Crabgrass [6, 20]: 80
- Plant response rating, Crabgrass [6, 17]: 90
- Foxtail, Giant plant response rating [7, 19]: 60
- Foxtail, Giant plant response rating [7, 15]: 80
- Plant response rating, Foxtail, Giant [7, 20]: 30
- Plant response rating, Foxtail, Giant [7, 17]: 90
- Surinam Grass plant response rating [8, 19]: 70
- Surinam Grass plant response rating [8, 15]: 80
- Plant response rating, Surinam Grass [8, 20]: 70
- Plant response rating, Surinam Grass [8, 17]: 80
- Barnyardgrass plant response rating [9, 19]: 80
- Barnyardgrass plant response rating [9, 15]: 90
- Plant response rating, Barnyardgrass [9, 20]: 60
- Plant response rating, Barnyardgrass [9, 17]: 80
- Morningglory plant response rating [10, 19]: 100
- Morningglory plant response rating [10, 15]: 100
- Plant response rating, Morningglory [10, 20]: 80
- Plant response rating, Morningglory [10, 17]: 100
- Cocklebur plant response rating [11, 19]: 70
- Cocklebur plant response rating [11, 15]: 100
- Plant response rating, Cocklebur [11, 20]: 90
- Plant response rating, Cocklebur [11, 17]: 90
- Velvetleaf plant response rating [12, 19]: 70
- Velvetleaf plant response rating [12, 15]: 100
- Plant response rating, Velvetleaf [12, 20]: 80
- Plant response rating, Velvetleaf [12, 17]: 100
- Pigweed plant response rating [13, 19]: 80
- Pigweed plant response rating [13, 15]: 90
- Plant response rating, Pigweed [13, 20]: 100
- Plant response rating, Pigweed [13, 17]: 100
- Blackgrass plant response rating ([14]; 62 g ai/ha): 50
- Blackgrass plant response rating ([14]; 125 g ai/ha): 60
- Oat, Wild plant response rating (wild oat (Avena fatua); 62 g ai/ha): 50
- Oat, Wild plant response rating (wild oat (Avena fatua); 125 g ai/ha): 60
